According to patent publication US11912793B2, “Polypeptide and application thereof in bone repair” (SICHUAN UNIVERSITY, priority 2022, dated 2024):

Assays:
[1] = tested on: osteogenesis-oriented BMSCs (pre-osteoblasts); test: In vitro osteogenic differentiation, Von kossa staining; format: cell-based, C57BL/6 male mice; settings: 5 days OM pretreatment, then 14 days peptide-containing OM, compared with the control peptide
Method: • 1.1 Cell culture: primary bone mesenchymal stem cells (BMSCs) extracted from the long bones of 3-week-old C57BL/6 male mice were selected, cultured at 37° C. in a humidified atmosphere with 5% CO2, and inoculated into a 24-well plate with 30000 cells/well. α-MEM supplemented with 5% FBS, 1% penicillin-streptomycin, […], 10 mM β-glycerophosphate, and 50 μg/mL L-ascorbic acid was used as the osteogenic medium (OM) for osteogenic induction. • 1.2 Cell induction: BMSCs were pretreated with OM for 5 days to achieve a determined osteogenic precursor cell state, followed by ongoing induction with peptide-containing OM for another 14 days. The experimental group used OM added with GS18, and the control group used OM added with the control peptide. GS18 was synthesized using a solid-phase polypeptide synthesis and was purified by HPLC (purity=96.59%). The amino acid sequence of the control peptide was shown as SEQ ID NO: 2, i.e. CKPLRLSKEEHPLK. The control peptide also adopted a solid-phase polypeptide synthesis method and used HPLC to purify products (purity=96.15%). […] The integrated density of calcium nodes (IntDen) and the percent of the calcified area to the total area (Area %) from five random areas were measured by Fiji. **p<0.01.

calvarial defects = test: Calvarial defect implantation of polypeptide-modified GelMA, H&E and Goldner's trichrome staining; format: in vivo, SD male rats; settings: GelMA scaffold with peptide 0.1 mg/mL, 5 mm calvarial defect, 4 weeks post-implantation
Method: • 2.1 GelMA Preparation: gelatin was fully dissolved in phosphate-buffered saline (PBS) at 60° C. with a concentration of 10% (w/v). […] Double PBS was added to the mixture to stop the reaction. The solution was dialyzed against distilled water using 12-14 kDa dialysis tubing for 1 week. The obtained GelMA solution was frozen at −20° C. overnight and lyophilized for 72 h to get sponge GelMA. • 2.2 Polypeptide modification: 2 g lyophilized GelMA was dissolved in 10 mL PBS containing 0.1% (w/v) photoinitiator LAP at 60° C. Then, either a control peptide or GS18 was added to achieve a final concentration of 0.1 mg/mL. The above mixture was injected into the mold (20 μL/hole) and exposed to ultraviolet irradiation (6.9 W/cm^2, 360-489 nm) for 2 min at room temperature. Once solidified, the materials were carefully detached from the mold and placed on ice for use. • 2.3 Result verification: photographs were captured to depict the morphological characteristics of the polypeptide-modified GelMA after it was separated from the mold.
• 3.1 Sample preparation: the GelMA scaffold was utilized to encapsulate either GS18 or control peptide at a concentration of 0.1 mg/mL, resulting in a total volume of 0.02 cm^3. • 3.2 Animal model: 12-week-old SD male rats (about 320±20 g each) were used. Each group contained 3 rats. Rats were anesthetized with 2% pentobarbital via abdominal injection. The rats were positioned in the prone position. An electric razor was utilized to remove fur from the cranial region. Following this, the surgical sites were thoroughly cleansed with iodophor for disinfection. To maintain a sterile condition, disposable towels were carefully placed over the surgical regions. Starting from the nasal bone, a longitudinal skin incision of 1.5-2.0 cm was made along the midline of the top of the head. The subcutaneous tissue was gently separated with the handle of a surgical knife. The periosteum was meticulously incised along the sagittal suture of the cranium and subsequently separated to fully expose the parietal bone, occipital bone, and part of the frontal bone. Bilateral full-thickness circular calvarial defects (diameter=5 mm) were generated using a trephine. Sterilized materials were implanted into the defect sites. The experimental group was implanted with GS18-modified GelMA, While the control group was implanted with control peptide-modified GelMA. Finally, the skin was reset, sutured, and disinfected. • 3.3 Tissue slices: after 4 weeks, the rats were sacrificed. […] The paraffin tissue slices were heated at 65° C., dewaxed, hydrated with xylene and gradient ethanol, and stained with H&E and Goldner's trichrome staining for histological evaluation.

Wnt/β-catenin pathway = test: Immunofluorescence staining of active β-catenin and osteocalcin in calvarial defects; format: in vivo, SD male rats; settings: 4 weeks after implantation
Method: • 3.1 Sample preparation: the GelMA scaffold was utilized to encapsulate either GS18 or control peptide at a concentration of 0.1 mg/mL, resulting in a total volume of 0.02 cm^3. • 3.2 Animal model: 12-week-old SD male rats (about 320±20 g each) were used. Each group contained 3 rats. Rats were anesthetized with 2% pentobarbital via abdominal injection. The rats were positioned in the prone position. An electric razor was utilized to remove fur from the cranial region. Following this, the surgical sites were thoroughly cleansed with iodophor for disinfection. To maintain a sterile condition, disposable towels were carefully placed over the surgical regions. Starting from the nasal bone, a longitudinal skin incision of 1.5-2.0 cm was made along the midline of the top of the head. The subcutaneous tissue was gently separated with the handle of a surgical knife. […]
• 4.1 Antigen repair: the paraffin slices prepared in Embodiment 3.3 were heated at 65° C., dewaxed, hydrated with xylene and gradient ethanol, and immersed in the antigen repair buffer at 100° C. for 40 min. […] Subsequently, the sections were washed with PBS three times for 15 min each time and sealed by the anti-fluorescence quencher. • 4.3 Result verification: images of immunofluorescence staining were acquired using a confocal laser scanning microscope (CLSM, FV3000, Olympus, Japan).

Row | Sequence | formation of calcium deposits of pre-osteoblasts (FIG. 1B) [1] | maturation of calcium deposits of pre-osteoblasts (FIG. 1C) [1] | H&E staining: cellular growth / cell recruitment in the defect (FIG. 3) (calvarial defects) | H&E staining: fiber mineralization in the defect (FIG. 3) (calvarial defects) | expression of Ocn in the defect area (FIG. 5) (Wnt/β-catenin pathway) | expression of active β-Catenin in newly formed tissues of the calvarial defects (FIG. 5) (Wnt/β-catenin pathway; compared to non-peptide-modified GelMA) | Goldner's trichrome staining: cellular growth / cell infiltration in the defect (FIG. 4) (calvarial defects)
1 | GPGGDKCRCVFHWVCCYVS (GPGGDKCRCVFHWCCYVS; The sequence is synthetized) [GS18] | significantly increased | significantly increased | capacity to attract and recruit cells into the scaffolds | high degree of fiber mineralization | robust and widespread | significantly enhanced | 
2 | CKPLRLSKEEHPLK (The sequence is synthetized) [control peptide, control peptide made by solid-phase polypeptide synthesis, reference compound] |  |  | noticeable lack of cellular growth in the central region of the defect |  |  |  | conspicuous paucity of cellular growth within the central region of the defect
